Measurements reported in PubChem BioAssay (NCI).
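Protocol summary: plate cells (96-well), add compound at 5 concentrations, incubate 48 h, interpolate endpoints linearly. GI50 is the concentration that inhibits growth by half. TGI is the concentration that stops growth completely.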

Columns and labels:
Experiment in all cases: NCI tumour cell line growth inhibition, 48 h
[1] = system: 786-0 renal
[2] = system: A498 renal
[3] = system: CAKI-1 renal
[4] = system: HCT-15 colon
[5] = system: HOP-62 NSCLC
[6] = system: HOP-92 NSCLC
[7] = system: KM12 colon
[8] = system: M14 melanoma
[9] = system: SR leukemia
[10] = system: UO-31 renal

## CCOC(=O)c1c(C)nc2ccc(Cl)cc2c1-c1ccccc1
[1]
  GI50: 17 µM
  TGI: 35.1 µM
[2]
  GI50: 15.5 µM
  TGI: 33.4 µM
[3]
  GI50: 21.1 µM
  TGI: 55 µM
[4]
  GI50: 16.9 µM
  TGI: 44.6 µM
[5]
  GI50: 15 µM
  TGI: 31.7 µM
[6]
  GI50: 1520 nM
  TGI: 20.8 µM
[7]
  GI50: 19.8 µM
  TGI: 56.8 µM
[8]
  GI50: 18.7 µM
  TGI: 52.3 µM
[9]
  GI50: 18.4 µM
  TGI: 48.5 µM
[10]
  GI50: 14.8 µM
  TGI: 31.1 µM

## C=C1C(=O)O[C@@H]2C(=O)[C@@H](C)[C@@H]3C=CC(=O)[C@@]3(C)[C@@H](OC(=O)/C(C)=C\C)[C@H]12
[1]
  TGI: 1 µM
[2]
  TGI: 3.44 µM
[3]
  TGI: 0.686 µM
[4]
  TGI: 2.27 µM
[5]
  TGI: 24.8 µM
[6]
  TGI: 1.43 µM
[7]
  TGI: 8 µM
[8]
  TGI: 8.2 µM
[9]
  TGI: 0.712 µM
[10]
  TGI: 2.85 µM

## CCN(CC)CCOc1ccc(/C(=C(\C)Cc2ccc(OC)cc2)c2ccc(OC(=O)NCc3ccccc3)cc2)cc1
[1]
  GI50: 1.64 µM
  TGI: 3.04 µM
[2]
  GI50: 4.3 µM
  TGI: 17.7 µM
[3]
  GI50: 2.27 µM
  TGI: 6.53 µM
[4]
  GI50: 1.53 µM
  TGI: 3.23 µM
[5]
  GI50: 2.09 µM
  TGI: 4.87 µM
[6]
  GI50: 1480 nM
  TGI: 3.17 µM
[7]
  GI50: 1.87 µM
  TGI: 3.89 µM
[8]
  GI50: 1.7 µM
  TGI: 3.26 µM
[9]
  GI50: 1.99 µM
  TGI: 4.31 µM
[10]
  GI50: 1.52 µM
  TGI: 3.02 µM

## S=c1nc2[nH]ncc2c(N/N=C/c2ccccc2)[nH]1
[1]
  GI50: > 100 µM
  TGI: > 100 µM
[2]
  GI50: 15.3 µM
  TGI: 73.4 µM
[3]
  GI50: 31.9 µM
  TGI: > 100 µM
[4]
  GI50: 81.3 µM
  TGI: > 100 µM
[5]
  GI50: > 100 µM
  TGI: > 100 µM
[6]
  GI50: > 100000 nM
  TGI: > 100 µM
[7]
  GI50: > 100 µM
  TGI: > 100 µM
[8]
  GI50: > 100 µM
  TGI: > 100 µM
[9]
  GI50: > 100 µM
  TGI: > 100 µM
[10]
  GI50: > 100 µM
  TGI: > 100 µM

## NC(=O)N/N=C(\C(=O)C(=O)Nc1ccc(Cl)c(C(F)(F)F)c1)c1nc2ccc(C(=O)c3ccccc3)cc2[nH]c1=O
[1]
  TGI: > 100 µM
[2]
  TGI: > 100 µM
[3]
  TGI: > 100 µM
[4]
  TGI: > 100 µM
[6]
  TGI: 47.3 µM
[7]
  TGI: > 100 µM
[8]
  TGI: > 100 µM
[9]
  TGI: > 100 µM
[10]
  TGI: > 100 µM

## N#CC(=S)Nc1ccc(Cl)c(Cl)c1
[1]
  TGI: > 66.9 µM
[2]
  TGI: 51.8 µM
[3]
  TGI: 55.1 µM
[4]
  TGI: 49.6 µM
[5]
  TGI: 99.5 µM
[6]
  TGI: 9.59 µM
[7]
  TGI: > 95.6 µM
[8]
  TGI: > 60.6 µM
[9]
  TGI: 67.4 µM
[10]
  GI50: 7.63 µM
  TGI: 51.6 µM

## O=C(O)C1NCCc2c1[nH]c1ccccc21 (stereo not drawn)
[1]
  GI50: > 100 µM
  TGI: > 100 µM
[2]
  GI50: > 100 µM
  TGI: > 100 µM
[3]
  GI50: > 100 µM
  TGI: > 100 µM
[4]
  GI50: > 100 µM
  TGI: > 100 µM
[5]
  TGI: > 10 µM
[6]
  GI50: > 100000 nM
  TGI: > 100 µM
[7]
  GI50: > 100 µM
  TGI: > 100 µM
[8]
  GI50: > 100 µM
  TGI: > 100 µM
[9]
  GI50: > 100 µM
  TGI: > 100 µM
[10]
  TGI: > 100 µM
